Like-named read-outs stand apart in the source and are kept apart here.
Tests used:
[1] = tested on: allogeneic-stimulated T cell proliferation; experiment: Mixed lymphocyte reactions (MLR); type: cell-based; details: therapeutic concentrations in vitro
Text: KRP203 reduces lymphocyte counts in peripheral blood by more than 80%.

[2] = tested on: bronchoconstrictor response induced by challenge agents; experiment: Safety pharmacology: bronchoconstrictor response in rats; type: in vivo, rat; details: rats pre-treated with 3 mg/kg
Text: (§1) Based on the available in vitro and in vivo data, except for the potential to cause a negative chronotropic effect and some mild increase in blood pressure, there is no indication that KRP203 would cause arrhythmia or QT prolongation in man.

[3] = tested on: guinea pig papillary muscle preparation; experiment: APD in guinea pig papillary muscle preparation; details: concentrations of 3 μM
Text: as §1

QT prolongation [4] = experiment: QT prolongation in telemetered dogs; type: in vivo, dog
Text: as §1

QT prolongation [5] = experiment: QT prolongation in anaesthetized guinea pigs; type: in vivo, guinea pig
Text: as §1

rats [6] = experiment: Acute toxicity in rats; type: in vivo
mice = experiment: Acute toxicity in mice; type: in vivo
dogs [7] = experiment: Acute toxicity in dogs; type: in vivo, dog
Experimental: No mortality was seen following single oral dosing in dogs up to 2000 mg/kg.

rats [8] = experiment: Repeat-dose toxicity studies in rats; type: in vivo
Text: (§2) Transitory activation of phagocytic cells and increased secretion of soluble markers by these cells is considered a main contributing factor to smooth muscle hypertrophy/hyperplasia.

dogs [9] = experiment: Repeat-dose toxicity studies in dogs; type: in vivo
Text: as §2

bacterial mutation = experiment: In vitro genotoxicity: bacterial mutation; type: cell-based
chromosome aberration = experiment: In vitro genotoxicity: chromosome aberration; type: cell-based
eye irritation = experiment: Eye irritation; details: in vivo
liver = experiment: Genomic profiling of the liver in a 2-week exploratory toxicity study in rats; type: in vivo, rat
[10] = tested on: healthy volunteers and patients (ulcerative colitis, subacute cutaneous lupus erythematosus, Crohn's disease); experiment: Placebo-controlled clinical trials of KRP203 in healthy volunteers and patients; type: in vivo, human
Experimental: The clinical experience with mocravimod includes single doses up to 40 mg in healthy volunteers and multiple doses up to 3 mg/day in healthy volunteers and patients. […] In the phase […] study, mocravimod was administered for up to around 3 months in patients with several different hematologic malignancies receiving allogeneic HSCT. […] However, patient numbers were low and efficacy results warrant more data in a more homogeneous patient population. To gather more data on both doses, this phase IIb study will investigate mocravimod at two different dose levels, a daily dose of 1 mg as well as of 3 mg.

CYP3A4 = CYP3A4 (Homo sapiens, UniProt P08684); experiment: Metabolism by CYP enzymes (in vitro data); type: in vitro ADME
Text: The weak inhibitory effect of ciclosporin on hepatic CYP3A4 is unlikely to relevantly impact the PK of KRP203.

[11] = rat, in vivo

Sequence of CYP3A4 (P08684 whole entry): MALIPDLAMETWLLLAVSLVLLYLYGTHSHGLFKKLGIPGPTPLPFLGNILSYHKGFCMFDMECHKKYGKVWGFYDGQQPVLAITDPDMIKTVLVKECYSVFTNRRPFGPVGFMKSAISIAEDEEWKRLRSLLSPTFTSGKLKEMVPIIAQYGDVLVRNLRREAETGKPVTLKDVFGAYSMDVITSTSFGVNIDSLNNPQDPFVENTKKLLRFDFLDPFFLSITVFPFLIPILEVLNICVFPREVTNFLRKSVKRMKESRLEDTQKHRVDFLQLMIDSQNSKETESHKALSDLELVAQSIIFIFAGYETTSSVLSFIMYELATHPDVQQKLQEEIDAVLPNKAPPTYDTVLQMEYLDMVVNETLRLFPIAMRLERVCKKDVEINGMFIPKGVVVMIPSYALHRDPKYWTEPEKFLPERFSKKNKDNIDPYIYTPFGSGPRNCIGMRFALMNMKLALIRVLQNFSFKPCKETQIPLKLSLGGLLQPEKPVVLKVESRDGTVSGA

NC(CO)(CO)CCc1ccc(Sc2cccc(OCc3ccccc3)c2)cc1Cl [KRP203, 2-amino-2-[4-(3-benzyloxyphenylthio)-2-chlorophenyl] ethyl-propane-1,3-diol]
inhibition of allogeneic-stimulated T cell proliferation [1]: does not inhibit | effects on bronchoconstrictor response induced by challenge agents [2]: no significant effects | APD prolongation [3]: No APD prolongation | QT prolongation (QT prolongation [4]): No indication for QT prolongation | QT prolongation (QT prolongation [5]): No indication for QT prolongation | intravenous dose producing lethality (rats [6]): above 50 mg/kg | oral dose producing lethality (rats [6]): 1000 mg/kg | intravenous dose producing lethality (mice): above 50 mg/kg | no mortality following single oral dosing up to (dogs [7]): up to 2000 mg/kg | local tolerability in the gastro-intestinal tract (rats [8]; oral dosing in rats or dogs up to 26 or 13 weeks): no indication for impaired local tolerability | hepatic effects (rats [8]; rats and mice, not in dogs): mild and did only occur at high dose levels | no mortality up to daily dose (rats [8]; rats, up to 26-week): ≤ 50 mg/kg | gastro-intestinal findings (dogs [9]; 26- and 52-week dog toxicity studies): gastro-intestinal tract disturbance with soft/mucoid stools and diarrhea occurred in males only at the high dose level | no mortality up to daily dose (dogs [9]; dogs, up to 52-week): ≤ 15 mg/kg | genotoxic potential (bacterial mutation): no evidence for a genotoxic potential | genotoxic potential (chromosome aberration): no evidence for a genotoxic potential | eye irritation (eye irritation): marked eye irritation | hepatotoxicity-related changes in genomic profiling of the liver (liver): did not indicate any hepatotoxicity-related changes | tolerability [10]: well tolerated | metabolism by CYP enzymes (CYP3A4): only to a limited extent | metabolism by CYP enzymes (CYP3A4; listed as Mocravimod): mainly metabolized by the enzyme CYP3A4 | increase of exposure at the end of the 13-week treatment compared to single dose ([11]; both, 13 weeks): 2-5 fold | proportionality between exposure and dose [11]: apparent proportionality between exposure and dose
